Experimental data reported in paper PMC9952136 (Antibiotics, 2023).

What was measured:
CYP3A4 [1] = assay: Screening of CYP450 enzymes that metabolize SAL and ENR with positive inhibitors (KCZ) in broiler liver microsomes; assay type: in vitro ADME; conditions: 50 μmol/L ENR; 0.5 mg/mL broiler liver microsomes; KCZ pre-incubated 30 min at 41 °C, then 4 h
Procedure: (§1) Probe drugs: a volume of 0.2 mL cold acetonitrile were added into 0.05 mL microsome incubation solution, then vortexed for 2 min to extract target compounds. The mixture was centrifuged at 12,000 rpm for 15 min. The supernatant was filtered through a 0.2 μm filter.
Briefly, alpha-naphthoflavone (α-NIF, inhibitor of CYP1A2), sulfafenpyrazole (SUl, CYP2D6), sodium diethyldithiocarbamate (DIE, inhibitor of CYP2E1), omeprazole (OMP, inhibitor of CYP2C45) and ketoconazole (KCZ, inhibitor of CYP3A4) were incubated with 50 μmol/L SAL or the ENR-NADPH system, respectively. The system consisted of 0.5 mg/mL broiler liver microsomes, 0.05 mmol/L Tris-HCl buffer, and 1 mmol/L NADPH.

CYP3A4 (broiler) = assay: Probe substrate (testosterone) assay of CYP3A4 activity in broiler liver microsomes; assay type: in vitro ADME; conditions: chicken (broiler), probe testosterone (TS); 100 µmol/L; pre-incubated 30 min at 41 °C; broiler liver microsomes; probe testosterone; read-out: inhibition rate on CYP3A4 (TS metabolism)
Procedure: as §1
(§2) […]. […] Except for testosterone, which was incubated for 30 min, all other probe drugs were incubated for 4 h.

broiler CYP3A4 = assay: as above; assay type: in vitro ADME
Procedure: as §1, §2

CYP3A4 [2] = assay: mRNA (RT-qPCR) and protein (Western blot) expression of hepatic CYP3A4 in treated broilers; assay type: in vivo
Procedure: (§3) The relative expressions of CYP3A4, P-gp and BCRP in tissue of broiler and Caco-2 were evaluated via quantitative real-time PCR (RT–qPCR, Bio-Rad, Hercules, CA, USA). […] Relevant cells were treated as indicated and total RNA was extracted from cells and tissue using RNA isolater Total RNA Extraction Reagent (R401-01, Vazyme Biotech Co., Ltd., Nanjing, China) following the manufacturer’s protocols, then reverse-transcribed into cDNA using HiScript II Q Select RT SuperMix for Qpcr (R233-01, Vazyme Biotech Co., Ltd.). The cDNA was determined by quantitative RT-PCR using 2 × AceQ qPCR SYBR Green Master Mix (Q141-02, Vazyme Biotech Co., Ltd.) with the primers (listed in Supplementary Tables S1 and S2). All data were analyzed using the 2−ΔΔCt method.
These were then collected in a RIPA lysis buffer (P0013B, Beyotime, Shanghai, China) and incubated on a rocker with ice for 30 min. Cell and tissue lysates were centrifuged at 12,000× g/4 °C for 15 min and lysates were boiled at 100 °C for 5 min in 5× SDS Loading Buffer and resolved by SDS-PAGE. Proteins were transferred into a polyvinylidene fluoride (PVDF) membrane (Bio-Rad) and then incubated with the CYP3A4 Rabbit pAb (Cat#A2544, ABclonal, Wuhan, China), ABCG2 Rabbit pAb (Cat#A5661, ABclonal, Wuhan, China), P-gp Rabbit pAb (Cat#A11747, ABclonal, Wuhan, China) over night, respectively. They were then incubated with the HRP Goat Anti-Rabbit IgG (Cat#AS014, ABclonal, Wuhan, China) for 1.5 h. Immobilon Western Chemiluminescent HRP Substrate (Millipore) was used for protein detection. The immunoreactive bands were visualized on a gel imaging system (Tanon 5200 Multi, Tanon Technology Co., Ltd., Shanghai, China), and the intensities of the immunoreactive bands were quantified using Quantity One.

P-gp = P-gp gene and protein expression in Caco-2 cells (qPCR, WB); assay type: cell-based, human; conditions: ENR 5 and 20 μmol/L, SAL 0.5 and 2 μmol/L; 12 or 24 h
Procedure: as §3
(§4) These were then collected in a RIPA lysis buffer (P0013B, Beyotime, Shanghai, China) and incubated on a rocker with ice for 30 min. Cell and tissue lysates were centrifuged at 12,000× g/4 °C for 15 min and lysates were boiled at 100 °C for 5 min in 5× SDS Loading Buffer and resolved by SDS-PAGE. […] The immunoreactive bands were visualized on a gel imaging system (Tanon 5200 Multi, Tanon Technology Co., Ltd., Shanghai, China), and the intensities of the immunoreactive bands were quantified using Quantity One.

BCRP = BCRP gene and protein expression in Caco-2 cells (qPCR, WB); assay type: cell-based, human; conditions: ENR 5 and 20 μmol/L; 12 and 24 h; concentration- and time-dependent
Procedure: as §3, §4

[3] = Pharmacokinetic studies of ENR and SAL in broilers (plasma, non-compartmental); conditions: for AUC(0-t) / AUC(0-inf) / Cmax / k el / MRT last / MRT inf / Tmax / half-life: AA broiler, plasma, po, 7.5 mg/kg, n=6, Mean ± SD; for AUC(0-t): AUC0-36h; for AUC(0-t) / AUC(0-inf) / Cmax / k el / MRT last / MRT inf / Tmax: broiler plasma; for AUC(0-inf): AUC0-∞; for k el: Ke; for MRT last: MRT0-36h; for MRT inf: MRT0-∞; for half-life: t1/2, broiler plasma;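 as to all read-outs here: plasma drug levels measured by HPLC or LC-MS/MS, with PK parameters obtained through non-compartmental analysis in WinNonlin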
Procedure: Mobile phase compositions were 0.5 mol/L H3PO4-triethylamine (pH = 2.4, phase A) and acetonitrile (phase B) (82:18, v/v) [1, 18].
SAL (Shandong Lukang, Jining, China): The LC-MS/MS assay method for SAL were introduced in the previous research [21]. The separate system of HPLC used 0.1% formic acid solution (phase A) and methanol (phase B) as mobile phase. […] Positive ion scanning mode was used; DP, CE, and CXP are 59.1 V, 65.64 V, and 12 V, respectively.
Plasma sample: Add 0.8 mL of acetonitrile to 0.2 mL of plasma to precipitate proteins. After vortexing the mixture for 5 min, centrifuge at 12,000 rpm for 10 min. Transfer the supernatant to a new 10 mL tube. The supernatant was blown dry with nitrogen at 40 °C, and the pellet was redissolved with 1 mL of methanol. The methanol reconstituted solution was filtered through a 0.2 μm filter.
PK parameters were calculated with WinNonlin software using non-compartmental settings (version 6.4; Pharsight Corporation, Mountain View, CA, USA).

[4] = SAL (5 d) + ENR: SAL 60 mg/kg mixed feeding 5 days, then ENR 7.5 mg/kg gavage
[5] = SAL + ENR: ENR 7.5 mg/kg + SAL 6.0 mg/kg co-gavage
[6] = abstract, broilers, group not given

CCN1CCN(c2cc3c(cc2F)c(=O)c(C(=O)O)cn3C2CC2)CC1 [ENR, Enrofloxacin]
decrease of ENR metabolic rate after addition of the CYP3A4-specific inhibitor KCZ (CYP3A4 [1]): 32% | inhibition at 30 min, 100 µmol/L (CYP3A4 (broiler)): 32% | effect on CYP3A4 at short pre-incubation (broiler CYP3A4; 0 and 3 min of pre-incubation): induced | dependence of CYP3A4 inhibition on pre-incubation time (broiler CYP3A4; 100 μmol/L, pre-incubated 0, 3, 5, 15, 30 min): time-dependent | dependence of CYP3A4 inhibition on concentration (broiler CYP3A4; 50, 100 and 500 μmol/L): concentration-dependent inhibitory effects | effect of ENR on mRNA and protein levels of CYP3A4 in liver (CYP3A4 [2]; ENR (5d) + SAL group contrasted with single SAL group): significantly inhibited | effect of ENR on CYP3A4 gene expression in liver (CYP3A4 [2]; ENR + SAL group contrasted with single SAL group): overexpression | effect on protein expression of CYP3A4 in liver (CYP3A4 [2]; single gavage (ENR 7.5 mg/kg or SAL 6.0 mg/kg) compared with physiological saline group): induced | gene and protein expressions of P-gp in Caco-2 cells (P-gp): significantly decreased | expression of BCRP in Caco-2 cells (BCRP): decreased | AUC(0-t) ([3]; ENR (7.5 mg/kg) gavage alone): 12800 ± 3990 ng·h/mL | AUC(0-t) [3, 4]: 15300 ± 1290 ng·h/mL | AUC(0-t) [3, 5]: 16700 ± 1290 ng·h/mL | AUC(0-inf) ([3]; ENR (7.5 mg/kg) gavage alone): 13500 ± 4080 ng·h/mL | AUC(0-inf) [3, 4]: 16000 ± 1450 ng·h/mL | AUC(0-inf) [3, 5]: 17500 ± 1450 ng·h/mL | Cmax ([3]; ENR (7.5 mg/kg) gavage alone): 1490 ± 540 ng/mL | Cmax [3, 4]: 1600 ± 160 ng/mL | Cmax [3, 5]: 1480 ± 160 ng/mL | k el ([3]; ENR (7.5 mg/kg) gavage alone): 1.94e-05 s⁻¹ | k el [3, 4]: 2.5e-05 s⁻¹ | k el [3, 5]: 2.5e-05 s⁻¹ | MRT last ([3]; ENR (7.5 mg/kg) gavage alone): 8.29 ± 1.03 h | MRT last [3, 4]: 8.35 ± 0.52 h | MRT last [3, 5]: 9.06 ± 0.52 h | MRT inf ([3]; ENR (7.5 mg/kg) gavage alone): 10.8 ± 1.76 h | MRT inf [3, 4]: 10.1 ± 0.9 h | MRT inf [3, 5]: 10.6 ± 0.9 h | Tmax ([3]; ENR (7.5 mg/kg) gavage alone): 1.5 ± 0.55 h | Tmax [3, 4]: 2.17 ± 1.03 h | Tmax [3, 5]: 2.67 ± 1.03 h | half-life ([3]; ENR (7.5 mg/kg) gavage alone): 7.45 ± 1.71 h | half-life [3, 4]: 8.13 ± 0.86 h | half-life [3, 5]: 8.65 ± 0.54 h | increase of area under the curve by SAL [3, 6]: 1.3 times | increase of elimination half-life by SAL [3, 6]: 1.2 times
